Laboratory results from paper PMC7689923 (ACS Omega, 2020).
Values after ≈ are worked out from the molar mass of the structure shown. Values joined by “and” are separate entries in the source; they are usually repeats but may differ in a detail not shown here. Equal values may be shown once.

Experiments:
[1] = system: Mtb; details: cited from earlier work
[2] = target: T1, KasA (Mycobacterium tuberculosis, UniProt P9WQD9); details: binder of KasA; cited from earlier work
T1 sequence (P9WQD9 1-416): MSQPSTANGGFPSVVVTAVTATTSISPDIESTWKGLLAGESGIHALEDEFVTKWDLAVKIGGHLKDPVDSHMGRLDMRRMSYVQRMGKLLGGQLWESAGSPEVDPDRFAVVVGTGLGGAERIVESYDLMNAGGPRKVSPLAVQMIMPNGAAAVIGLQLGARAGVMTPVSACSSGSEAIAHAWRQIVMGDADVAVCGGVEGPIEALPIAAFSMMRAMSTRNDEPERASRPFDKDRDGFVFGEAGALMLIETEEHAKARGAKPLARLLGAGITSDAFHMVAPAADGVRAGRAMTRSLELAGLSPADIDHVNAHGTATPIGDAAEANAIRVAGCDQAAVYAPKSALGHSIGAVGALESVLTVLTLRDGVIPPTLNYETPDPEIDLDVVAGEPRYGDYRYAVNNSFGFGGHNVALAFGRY

[3] = target: T1, KasA; experiment: biochemical; type: binding; details: for KasA binding via MST (in words): at the concentrations tested
[4] = target: T1, KasA; experiment: Thermal shift experiments using nanoDSF; type: binding

## CCCCS(=O)(=O)Nc1ccc2cnn(C)c2c1 [DG167]
[1]
  minimum inhibitor concentration (MIC): 0.39 M
[2]
  EC50: 0.131 ± 0.0182 µM

## Oc1cc(Cl)ccc1Oc1ccc(Cl)cc1Cl [Triclosan, triclosan]
[1]; Mtb inhibitor
  MIC: 12.5 µM (≈ 3.62 µg/mL)

## CCCc1nn(C)c2c(=O)[nH]c(-c3cc(S(=O)(=O)N4CCN(C)CC4)ccc3OCC)nc12 [Sildenafil, sildenafil]
[3]
  Kd: 32.5 µM and 30 to 40 µM

## COC(=O)Nc1nc2cc(C(=O)c3ccc(F)cc3)ccc2[nH]1 [Flubendazole, flubendazole]
[4]
  change in Tm (in words): did not show significant changes in Tm
[3]
  Kd: 38.5 µM and 30 to 40 µM
  KasA binding via MST (in words): showed binding to KasA

## CCCNC(=O)NS(=O)(=O)c1ccc(Cl)cc1 [Chlorpropamide]
[4]
  change in Tm (in words): did not show significant changes in Tm
[3]
  Kd: 90.6 µM and > 90 µM
  KasA binding via MST (in words): showed binding to KasA

## CC[C@H](C)C(=O)O[C@H]1C[C@@H](C)C=C2C=C[C@H](C)[C@H](CC[C@@H]3C[C@@H](O)CC(=O)O3)[C@H]21 [Lovastatin, lovastatin]
[4]
  change in Tm (in words): did not show significant changes in Tm
[3]
  Kd: 224 µM and > 90 µM
  KasA binding via MST (in words): showed binding to KasA
